Our source for the IC50 values is US9556179B2 (BRISTOL-MYERS SQUIBB COMPANY, priority 2012, dated 2017).

One assay deals with CK1δ (Homo sapiens (Human), UniProt P48730). The experiment in a line: CK1δ kinase assay (Caliper LABCHIP electrophoretic separation of fluoresceinated peptide substrate and product). It is filed as biochemical. The settings on record: 200 pM enzyme, 50 μM ATP, 22 hours at room temperature. The gist of the method:
(§1)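 Kinase reactions ran 22 h at room temperature, were stopped with EDTA, and phosphorylated product was separated electrophoretically from unphosphorylated fluoresceinated peptide. Compounds were tested at eleven concentrations from 10 mM DMSO stocks. IC50 by non-linear regression.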

A further assay has as its target CK1ε (Homo sapiens (Human), UniProt P49674). The experiment in a line: CK1ε kinase assay (Caliper LABCHIP electrophoretic separation of fluoresceinated peptide substrate and product). It is filed as biochemical. The settings on record: 200 pM enzyme, 50 μM ATP, 22 hours at room temperature. Summed up:
as §1

Sequence of CK1δ (P48730 whole entry): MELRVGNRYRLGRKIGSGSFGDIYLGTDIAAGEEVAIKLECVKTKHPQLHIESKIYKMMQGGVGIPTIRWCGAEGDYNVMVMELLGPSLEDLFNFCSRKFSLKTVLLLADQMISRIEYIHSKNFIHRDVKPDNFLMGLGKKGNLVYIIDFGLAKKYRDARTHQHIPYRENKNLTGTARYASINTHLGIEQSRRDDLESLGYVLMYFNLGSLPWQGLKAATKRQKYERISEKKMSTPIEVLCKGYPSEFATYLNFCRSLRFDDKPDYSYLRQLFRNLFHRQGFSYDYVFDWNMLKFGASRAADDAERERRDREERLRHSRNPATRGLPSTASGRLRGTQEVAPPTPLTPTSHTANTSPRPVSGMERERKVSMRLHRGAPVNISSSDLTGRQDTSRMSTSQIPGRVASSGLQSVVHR
Sequence of CK1ε (P49674 whole entry): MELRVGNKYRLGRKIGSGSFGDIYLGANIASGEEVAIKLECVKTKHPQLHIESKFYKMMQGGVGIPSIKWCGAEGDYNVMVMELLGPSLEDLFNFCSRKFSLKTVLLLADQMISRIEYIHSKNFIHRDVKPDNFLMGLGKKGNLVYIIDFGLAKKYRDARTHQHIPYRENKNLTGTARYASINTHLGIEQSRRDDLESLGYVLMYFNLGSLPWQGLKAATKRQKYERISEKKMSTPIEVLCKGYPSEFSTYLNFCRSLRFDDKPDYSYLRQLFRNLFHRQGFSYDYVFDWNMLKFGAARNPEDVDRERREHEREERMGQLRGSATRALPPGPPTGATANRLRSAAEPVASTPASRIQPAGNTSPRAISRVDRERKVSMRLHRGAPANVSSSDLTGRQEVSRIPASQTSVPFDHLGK

Turning to `CC(C)(C)c1cc(C(=O)Nc2cn3nc(-c4c(-c5ccc(F)cc5)nc5ccccn45)ccc3n2)ccn1` [Compound 197, 2-(tert-butyl)-N-(6-(2-(4-fluorophenyl)imidazo[1,2-a]pyridin-3-yl)imidazo[1,2-b]pyridazin-2-yl)isonicotinamide], the IC50 was found to be 2.99 nM at CK1δ and 8.98 nM against CK1ε.

For `O=C(Nc1cn2nc(-c3c(-c4ccc(F)cc4)nc4ccccn34)ccc2n1)c1ccnc(C(F)(F)F)c1` [Compound 198, N-(6-(2-(4-fluorophenyl)imidazo[1,2-a]pyridin-3-yl)imidazo[1,2-b]pyridazin-2-yl)-2-(trifluoromethyl) isonicotinamide], the IC50 on CK1δ is 3.88 nM; on CK1ε, 34.6 nM.

As to `O=C(Nc1cn2nc(-c3c(-c4ccc(F)cc4)nc4ccccn34)ccc2n1)c1cc(Cl)ncc1C(F)(F)F` [Compound 199, 2-chloro-N-(6-(2-(4-fluorophenyl)imidazo[1,2-a]pyridin-3-yl)imidazo[1,2-b]pyridazin-2-yl)-5-(trifluoromethyl) isonicotinamide], the IC50 stood at 3.24 nM against CK1δ and 16.3 nM against CK1ε.

`O=C(Nc1cn2nc(-c3c(-c4ccc(F)cc4)nc4ccccn34)ccc2n1)c1ccncc1F` [Compound 200, 3-fluoro-N-(6-(2-(4-fluorophenyl)imidazo[1,2-a]pyridin-3-yl)imidazo[1,2-b]pyridazin-2-yl) isonicotinamide]: the IC50 on CK1δ was 1.78 nM; against CK1ε, 4.61 nM.

As to `O=C(Nc1cn2nc(-c3c(-c4ccc(F)cc4)nc4ccccn34)ccc2n1)c1cncc(Cl)c1` [Compound 201, 5-chloro-N-(6-(2-(4-fluorophenyl)imidazo[1,2-a]pyridin-3-yl)imidazo[1,2-b]pyridazin-2-yl) nicotinamide], the IC50 on CK1δ is 1.21 nM; on CK1ε, 3.04 nM.

Turning to `CC(C)(C)c1cc(C(=O)Nc2cn3nc(-c4c(-c5ccc(F)cc5)nc5ccccn45)ccc3n2)ncn1` [Compound 202, 6-(tert-butyl)-N-(6-(2-(4-fluorophenyl)imidazo[1,2-a]pyridin-3-yl)imidazo[1,2-b]pyridazin-2-yl)pyrimidine-4-carboxamide], the IC50 is 9.84 nM at CK1δ and 28.1 nM on CK1ε.

In the case of `O=C(Nc1cn2nc(-c3c(-c4ccc(F)cc4)nc4ccccn34)ccc2n1)c1ccnc(N2CCOCC2)c1` [Compound 203, N-(6-(2-(4-fluorophenyl)imidazo[1,2-a]pyridin-3-yl)imidazo[1,2-b]pyridazin-2-yl)-2-morpholinoisonicotinamide], the IC50 at CK1δ came out at 0.447 nM; on CK1ε, 3.68 nM.

As to `O=C(Nc1cn2nc(-c3c(-c4ccc(F)cc4)nc4ccccn34)ccc2n1)c1cccc(-c2cccnc2)c1` [Compound 204, N-(6-(2-(4-fluorophenyl)imidazo[1,2-a]pyridin-3-yl)imidazo[1,2-b]pyridazin-2-yl)-3-(pyridin-3-yl)benzamide], the figures for the IC50 against CK1δ and at CK1ε were 2.09 nM and 1.83 nM, respectively.

As for `O=C(Nc1cn2nc(-c3c(-c4ccc(F)cc4)nc4ccccn34)ccc2n1)c1cccc(-c2cncnc2)c1` [Compound 205, N-(6-(2-(4-fluorophenyl)imidazo[1,2-a]pyridin-3-yl)imidazo[1,2-b]pyridazin-2-yl)-3-(pyrimidin-5-yl)benzamide], the results for the IC50 at CK1δ and against CK1ε were 2.04 nM and 4.35 nM, respectively.

On to `N#Cc1cccc(-c2cccc(C(=O)Nc3cn4nc(-c5c(-c6ccc(F)cc6)nc6ccccn56)ccc4n3)c2)c1` [Compound 207, 3′-cyano-N-(6-(2-(4-fluorophenyl)imidazo[1,2-a]pyridin-3-yl]imidazo[1,2-b]pyridazin-2-yl)-[1,1′-biphenyl]-3-carboxamide], for which the values for the IC50 at CK1δ and at CK1ε were 2.35 nM and 18.1 nM, respectively.

Turning to `O=C(Nc1cn2nc(-c3c(-c4ccc(F)cc4)nc4ccccn34)ccc2n1)c1ccon1` [Compound 208, N-(6-(2-(4-fluorophenyl)imidazo[1,2-a]pyridin-3-yl)imidazo[1,2-b]pyridazin-2-yl)isoxazole-3-carboxamide], the values for the IC50 on CK1δ and at CK1ε were 1.59 nM and 17 nM, respectively.

Regarding `Cc1nocc1C(=O)Nc1cn2nc(-c3c(-c4ccc(F)cc4)nc4ccccn34)ccc2n1` [Compound 209, N-(6-(2-(4-fluorophenyl)imidazo[1,2-a]pyridin-3-yl)imidazo[1,2-b]pyridazin-2-yl)-3-methylisoxazole-4-carboxamide], the IC50 against CK1δ was found to be 1.83 nM; against CK1ε, 29.5 nM.

With `Cc1onc(-c2ccccc2)c1C(=O)Nc1cn2nc(-c3c(-c4ccc(F)cc4)nc4ccccn34)ccc2n1` [Compound 210, N-(6-(2-(4-fluorophenyl)imidazo[1,2-a]pyridin-3-yl)imidazo[1,2-b]pyridazin-2-yl)-5-methyl-3-phenylisoxazole-4-carboxamide], the figures for the half-maximal inhibitory concentration (IC50) at CK1δ and on CK1ε were 17.6 nM and 75.1 nM, respectively.

Consider `O=C(Nc1cn2nc(-c3c(-c4ccc(F)cc4)nc4ccccn34)ccc2n1)c1cccc(-c2nccs2)c1` [Compound 211, N-(6-(2-(4-fluorophenyl)imidazo[1,2-a]pyridin-3-yl)imidazo[1,2-b]pyridazin-2-yl)-3-(thiazol-2-yl)benzamide], for which the IC50 worked out at 1.96 nM against CK1δ and 6.77 nM on CK1ε.

Take `O=C(Nc1cn2nc(-c3c(-c4ccc(F)cc4)nc4ccccn34)ccc2n1)c1cncc(-c2cccs2)c1` [Compound 212, N-(6-(2-(4-fluorophenyl)imidazo[1,2-a]pyridin-3-yl)imidazo[1,2-b]pyridazin-2-yl)-5-(thiophen-2-yl) nicotinamide]: the IC50 was determined as 0.64 nM against CK1δ and 5.98 nM against CK1ε.

For the compound `O=C(Nc1cn2nc(-c3c(-c4ccc(F)cc4)nc4ccccn34)ccc2n1)c1ccnc2[nH]cnc12` [Compound 213, N-(6-(2-(4-fluorophenyl)imidazo[1,2-a]pyridin-3-yl)imidazo[1,2-b]pyridazin-2-yl)-3H-imidazo[4,5-b] pyridine-7-carboxamide], the IC50 against CK1δ was 1.61 nM; against CK1ε it was 17.2 nM.

Take `O=C(Cn1ccnc1)Nc1cn2nc(-c3c(-c4ccc(F)cc4)nc4ccccn34)ccc2n1` [Compound 214, N-(6-(2-(4-fluorophenyl)imidazo[1,2-a]pyridin-3-yl)imidazo[1,2-b]pyridazin-2-yl)-2-(1H-imidazol-1-yl) acetamide]: the values for the IC50 against CK1δ and against CK1ε were 2.19 nM and 22.3 nM, respectively.

Regarding `Cc1cc(C)n(CCC(=O)Nc2cn3nc(-c4c(-c5ccc(F)cc5)nc5ccccn45)ccc3n2)n1` [Compound 215, 3-(3,5-dimethyl-1H-pyrazol-1-yl)-N-(6-(2-(4-fluorophenyl)imidazo[1,2-a]pyridin-3-yl)imidazo[1,2-b]pyridazin-2-yl)propanamide], the IC50 was determined as 1.67 nM at CK1δ and 17.1 nM on CK1ε.

In the case of `CN1CCC(C(=O)Nc2cn3nc(-c4c(-c5ccc(F)cc5)nc5ccccn45)ccc3n2)CC1` [Compound 216, N-(6-(2-(4-fluorophenyl)imidazo[1,2-a]pyridin-3-yl)imidazo[1,2-b]pyridazin-2-yl)-1-methylpiperidine-4-carboxamide], the IC50 was 2.95 nM at CK1δ and 26.7 nM on CK1ε.

On to `O=C(Nc1cn2nc(-c3c(-c4ccc(F)cc4)nc4ccccn34)ccc2n1)C1CCN(c2ccncc2)CC1` [Compound 217, N-(6-(2-(4-fluorophenyl)imidazo[1,2-a]pyridin-3-yl)imidazo[1,2-b]pyridazin-2-yl)-1-(pyridin-4-yl)piperidine-4-carboxamide], for which the results for the IC50 at CK1δ and on CK1ε were 0.833 nM and 12.2 nM, respectively.

Take `Cc1nc(-c2cccnc2)sc1C(=O)Nc1cn2nc(-c3c(-c4ccc(F)cc4)nc4ccccn34)ccc2n1` [Compound 218, N-(6-(2-(4-fluorophenyl)imidazo[1,2-a]pyridin-3-yl)imidazo[1,2-b]pyridazin-2-yl)-4-methyl-2-(pyridin-3-yl) thiazole-5-carboxamide]: the IC50 at CK1δ is 60.7 nM; against CK1ε it was 178 nM.

Turning to `Cc1nc(-c2ccncc2)sc1C(=O)Nc1cn2nc(-c3c(-c4ccc(F)cc4)nc4ccccn34)ccc2n1` [Compound 219, N-(6-(2-(4-fluorophenyl)imidazo[1,2-a]pyridin-3-yl)imidazo[1,2-b]pyridazin-2-yl)-4-methyl-2-(pyridin-4-yl) thiazole-5-carboxamide], the IC50 against CK1δ was determined as 1.15 nM; at CK1ε, 1.22 nM.

With `O=C(Nc1cn2nc(-c3c(-c4ccc(F)cc4)nc4ccccn34)ccc2n1)C1CCOCC1` [Compound 220, N-(6-(2-(4-fluorophenyl)imidazo[1,2-a]pyridin-3-yl)imidazo[1,2-b]pyridazin-2-yl)tetrahydro-2H-pyran-4-carboxamide], the IC50 was determined as 0.734 nM against CK1δ and 11.4 nM against CK1ε.

As to `O=C(CN1CCOCC1)Nc1cn2nc(-c3c(-c4ccc(F)cc4)nc4ccccn34)ccc2n1` [Compound 221, N-(6-(2-(4-fluorophenyl)imidazo[1,2-a]pyridin-3-yl)imidazo[1,2-b]pyridazin-2-yl)-2-morpholinoacetamide], the IC50 came to 4.06 nM on CK1δ and 42.2 nM at CK1ε.

Consider `O=C(Nc1cn2nc(-c3c(-c4ccc(F)cc4)nc4ccc(N5CCCC5)nn34)ccc2n1)c1ccncc1` [Compound 222, N-(2-(4-fluorophenyl)-6-(pyrrolidin-1-yl)-[3,6′-biimidazo[1,2-b]pyridazin]-2′-yl)isonicotinamide], for which the IC50 against CK1δ was 30.7 nM; at CK1ε it was 43.6 nM.

Turning to `CN1CCN(c2ccc3nc(-c4ccc(F)cc4)c(-c4ccc5nc(NC(=O)c6ccncc6)cn5n4)n3n2)CC1` [Compound 223, N-(2-(4-fluorophenyl)-6-(4-methylpiperazin-1-yl)-[3,6′-biimidazo[1,2-b]pyridazin]-2′-yl)isonicotinamide], the results for the IC50 against CK1δ and against CK1ε were 6.85 nM and 10.1 nM, respectively.

Take `Nc1ccc2nc(-c3ccc(F)cc3)c(-c3ccc4nc(NC(=O)c5ccncc5)cn4n3)n2n1` [Compound 224, N-(6-amino-2-(4-fluorophenyl)-[3,6′-biimidazo[1,2-b]pyridazin]-2′-yl)isonicotinamide]: the figures for the IC50 at CK1δ and at CK1ε were 0.694 nM and 2.81 nM, respectively.

Broadly, the IC50 is the concentration needed to halve the response being measured. A low value points to inhibition by little substance.
